Tested on: 873145-292-R-J1-PDC complex spheroid viability
Assay: Anticancer human tumor 873145-292-R-J1-PDC patient-derived renal clear cell carcinoma cell line growth inhibition [POLQ]
Conditions: for IC50: curve of first compound; for viability, T/C: stronger effect = lower value
Description: Multicellular complex tumor spheroid response to Polymerase (POL) inhibitors (novobiocin, ART-558, RP6685) in combination with a variety of drugs and investigational agents in selected tumor cell lines
The POL inhibitors (novobiocin, ART-558, and RP6685) were evaluated both individually and in combination with standard of care and investigational anticancer small molecules within a complex spheroid model of solid tumors. . Complex spheroids include a stromal component modeled by human endothelial cells (HUVEC) and fibroblasts modeled by human mesenchymal stem cells (MSCs). The concentration ranges selected for each drug and investigational agent were based upon clinically achievable concentrations if the clinical Cmax of the agent was known.
Compounds. The drugs and investigational agents: novobiocin (NSC847541), ART-558 (NSC835418), RP-6685 (NSC848927), peposertib (NSC802822), ceralasertib (NSC780249), elimusertib (NSC800525), camonsertib (NSC841442), AZD-1390 (NSC803789), olaparib (NSC753686), talazoparib (NSC767125), rucaparib (NSC756644), sotorasib (NSC818433), MRTX-1133 (NSC836407), SN-38 (NSC673596), topotecan (NSC609699), epotoside (NSC141540), doxorubicin (NSC123127), gemcitabine (NSC613327), 5-fluorouracil (NSC19893), paclitaxel (NSC125973), vemurafenib (NSC761431), MSA-2 (NSC828583), SN-011 (NSC837082), adavosertib (NSC754352), prexasertib (NSC758257), carboplatin (NSC241240) and oxaliplatin (NSC266046), were obtained from the National Cancer Institute (NCI) Developmental Therapeutics Program Chemical Repository (21). The FDA-approved anticancer drug set is available from the Developmental Therapeutics Program at https://dtp.cancer.gov/organization/dscb/obtaining/. […] The stock solutions were prepared in dimethyl sulfoxide (DMSO, Sigma-Aldrich, St. Louis, MO, cat. D2650), except for the platinum compounds which were prepared in saline (Quality Biological, Gaithersburg, MD, cat. 114-055-101), at 800-fold the tested concentration and stored at -70 degrees C prior to their use. All drugs and investigational agents were tested over a range starting from a high concentration at or near the clinical Cmax and decreasing in half-log increments. If the clinical Cmax for an agent had not been determined, the highest concentration tested was 10 microM, except for SN-38, which was tested at a high concentration of 1 microM.
Cell Culture. All cells were maintained in an incubator at 37 degrees C and 5% CO2 with 95% humidity. The PDC lines were cultured according to standard operating procedures established by the NCI PDMR (https://pdmr.cancer.gov). Table 3 of the manuscript, lists the cell lines along with the number of the three cell types plated to form the mct-spheroids and media for tumor cell growth. After thawing, all PDC lines, except 997537-175-T-J1-PDC and 415267-285-R-J2-PDC, were cultured in Matrigel-coated flasks prepared with a working solution of 1X Ham's F-12 nutrient mix, without supplementation (Thermo Fisher Scientific, cat. 11765054), 100 U/mL penicillin-streptomycin (Thermo Fisher Scientific, cat. 15140122), and 2.5% Matrigel (Corning Inc., Corning, NY, cat. 354248) for the first three passages. The two PDC lines 997537-175-T-J1-PDC and 415267-285-R-J2-PDC were cultured on uncoated flasks. The 857933-349-R-J2-PDC line was cultured in 6C/Colon 1B media containing advanced DMEM/F-12 (Thermo Fisher Scientific, cat. 12634028), 10 mM HEPES (Thermo Fisher Scientific, cat. 15630080), 1X GlutaMAX supplement (Thermo Fisher Scientific, cat. 35050061), 0.1 mg/mL primocin (InvivoGen, San Diego, CA, cat. ant-pm-2), 10% defined fetal bovine serum, heat inactivated (HyClone Laboratories Inc., Logan, UT, cat. SH30070.03HI), 50% L-WRN conditioned media (ATCC, cat. CRL-3276), 1.25 mM N-Acetyl-L-cysteine (Sigma-Aldrich, cat. A9165), 10 mM nicotinamide (Sigma-Aldrich, cat. N0636), 1X B-27 supplement (Thermo Fisher Scientific, cat. 17504044), 1X N-2 supplement (Thermo Fisher Scientific, cat. […]

[1] = second compound 0.0316 µM, first compound 0.0316 µM
[2] = second compound 0.0316 µM, first compound 0.1 µM
[3] = second compound 0.0316 µM, first compound 0.316 µM
[4] = second compound 0.0316 µM, first compound 1 µM
[5] = second compound 0.0316 µM, first compound 3.16 µM
[6] = second compound 0.0316 µM, first compound 10 µM
[7] = second compound 0.1 µM, first compound 0.0316 µM
[8] = second compound 0.1 µM, first compound 0.1 µM
[9] = second compound 0.1 µM, first compound 0.316 µM
[10] = second compound 0.1 µM, first compound 1 µM
[11] = second compound 0.1 µM, first compound 3.16 µM
[12] = second compound 0.1 µM, first compound 10 µM
[13] = second compound 0.316 µM, first compound 0.0316 µM
[14] = second compound 0.316 µM, first compound 0.1 µM
[15] = second compound 0.316 µM, first compound 0.316 µM
[16] = second compound 0.316 µM, first compound 1 µM
[17] = second compound 0.316 µM, first compound 3.16 µM
[18] = second compound 0.316 µM, first compound 10 µM
[19] = second compound 1 µM, first compound 0.0316 µM
[20] = second compound 1 µM, first compound 0.1 µM
[21] = second compound 1 µM, first compound 0.316 µM
[22] = second compound 1 µM, first compound 1 µM
[23] = second compound 1 µM, first compound 3.16 µM
[24] = second compound 1 µM, first compound 10 µM
[25] = second compound 3.16 µM, first compound 0.0316 µM
[26] = second compound 3.16 µM, first compound 0.1 µM
[27] = second compound 3.16 µM, first compound 0.316 µM
[28] = second compound 3.16 µM, first compound 1 µM
[29] = second compound 3.16 µM, first compound 3.16 µM
[30] = second compound 3.16 µM, first compound 10 µM
[31] = second compound 10 µM, first compound 0.0316 µM
[32] = second compound 10 µM, first compound 0.1 µM
[33] = second compound 10 µM, first compound 0.316 µM
[34] = second compound 10 µM, first compound 1 µM
[35] = second compound 10 µM, first compound 3.16 µM
[36] = second compound 10 µM, first compound 10 µM
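Note: spheroids exposed to compounds for 7 days before viability readout.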
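Throughout, for viability, T/C: luminescence signal used as surrogate for viable cell content; 100% = DMSO vehicle control viability.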

## O=C(Nc1ccc(O)c(NS(=O)(=O)c2ccc(F)cc2)c1)c1ccc(-c2ccccc2)cc1 + Nc1ccc(C#CCN(C(=O)Cc2ncc(C(F)(F)F)cc2C(F)(F)F)c2ccc(F)cc2)nn1
Second compound 0.0316 µM
  IC50: > 10 µM
Second compound 0.1 µM
  IC50: > 10 µM
Second compound 0.316 µM
  IC50: > 10 µM
Second compound 1 µM
  IC50: > 10 µM
Second compound 3.16 µM
  IC50: > 10 µM
Second compound 10 µM
  IC50: > 10 µM
[1]
  viability, T/C: 98%
[2]
  viability, T/C: 112%
[3]
  viability, T/C: 113%
[4]
  viability, T/C: 96.3%
[5]
  viability, T/C: 110%
[6]
  viability, T/C: 102%
[7]
  viability, T/C: 113%
[8]
  viability, T/C: 113%
[9]
  viability, T/C: 95.9%
[10]
  viability, T/C: 101%
[11]
  viability, T/C: 107%
[12]
  viability, T/C: 98.9%
[13]
  viability, T/C: 102%
[14]
  viability, T/C: 113%
[15]
  viability, T/C: 114%
[16]
  viability, T/C: 108%
[17]
  viability, T/C: 113%
[18]
  viability, T/C: 98.3%
[19]
  viability, T/C: 112%
[20]
  viability, T/C: 100%
[21]
  viability, T/C: 101%
[22]
  viability, T/C: 98.2%
[23]
  viability, T/C: 100%
[24]
  viability, T/C: 105%
[25]
  viability, T/C: 113%
[26]
  viability, T/C: 103%
[27]
  viability, T/C: 109%
[28]
  viability, T/C: 106%
[29]
  viability, T/C: 98.7%
[30]
  viability, T/C: 106%
[31]
  viability, T/C: 106%
[32]
  viability, T/C: 112%
[33]
  viability, T/C: 105%
[34]
  viability, T/C: 117%
[35]
  viability, T/C: 112%
[36]
  viability, T/C: 93.9%

## O=C(c1cc(Cc2n[nH]c(=O)c3ccccc23)ccc1F)N1CCN(C(=O)C2CC2)CC1 + Nc1ccc(C#CCN(C(=O)Cc2ncc(C(F)(F)F)cc2C(F)(F)F)c2ccc(F)cc2)nn1
Second compound 0.0316 µM
  IC50: > 10 µM
Second compound 0.1 µM
  IC50: > 10 µM
Second compound 0.316 µM
  IC50: > 10 µM
Second compound 1 µM
  IC50: > 10 µM
Second compound 3.16 µM
  IC50: > 10 µM
Second compound 10 µM
  IC50: > 10 µM
[1]
  viability, T/C: 98.5%
[2]
  viability, T/C: 110%
[3]
  viability, T/C: 101%
[4]
  viability, T/C: 106%
[5]
  viability, T/C: 107%
[6]
  viability, T/C: 108%
[7]
  viability, T/C: 112%
[8]
  viability, T/C: 118%
[9]
  viability, T/C: 103%
[10]
  viability, T/C: 102%
[11]
  viability, T/C: 98.1%
[12]
  viability, T/C: 96.2%
[13]
  viability, T/C: 96.4%
[14]
  viability, T/C: 114%
[15]
  viability, T/C: 114%
[16]
  viability, T/C: 105%
[17]
  viability, T/C: 93.8%
[18]
  viability, T/C: 103%
[19]
  viability, T/C: 98.4%
[20]
  viability, T/C: 105%
[21]
  viability, T/C: 114%
[22]
  viability, T/C: 117%
[23]
  viability, T/C: 104%
[24]
  viability, T/C: 88.6%
[25]
  viability, T/C: 104%
[26]
  viability, T/C: 114%
[27]
  viability, T/C: 115%
[28]
  viability, T/C: 110%
[29]
  viability, T/C: 96.2%
[30]
  viability, T/C: 104%
[31]
  viability, T/C: 101%
[32]
  viability, T/C: 105%
[33]
  viability, T/C: 106%
[34]
  viability, T/C: 109%
[35]
  viability, T/C: 100%
[36]
  viability, T/C: 101%
